Key:
Helicobacter pylori = test: H. pylori eradication by urea breath test (UBT) (Example 1); assay type: in vivo; conditions: for Patients with UBT negative results: N = 10
Method: (§1) 40 asymptomatic healthy patients that are positive for Helicobacter pylori infection were admitted to the trial. The 40 patients were randomly allocated to four groups at a ratio of 1:1:1:1.
(§2) Different therapies were administered to the patients of each group according to the schedule below: • Group A: • Compound I capsule 200 mg/time (2 capsules, 100 mg/capsule), twice per day (BID); rabeprazole sodium enteric-coated tablet 20 mg/time (1 tablet, 20 mg/tablet), twice per day (BID) • Group B: • Compound I capsule 400 mg/time (4 capsules, 100 mg/capsule), twice per day (BID); rabeprazole sodium enteric-coated tablet 20 mg/time (1 tablet, 20 mg/tablet), twice per day (BID) • Group C: • Compound I capsule 600 mg/time (6 capsules, 100 mg/capsule), twice per day (BID); rabeprazole sodium enteric-coated tablet 20 mg/time (1 tablet, 20 mg/tablet), twice per day (BID) • Group D: • Compound I capsule 400 mg/time (4 capsules, 100 mg/capsule), twice per day (BID); rabeprazole sodium enteric-coated tablet 20 mg/time (1 tablet, 20 mg/tablet), twice per day (BID); amoxicillin capsule 1 g/time (4 capsules, 0.25 g/capsule), twice per day (BID)
(§3) All patients were admitted to the clinical research center 1 day before dosing (D-1 Day), randomly allocated to respective groups and completed examinations for safety and baseline indicators. From day 1 to day 14, respective therapies/drugs were orally administered to the patients within 30 minutes after breakfast and dinner. On day 15, the last dose was administered orally to the patients within 30 minutes after breakfast. During the trial, each patient was dosed for 29 times in total. All patients left the hospital after completing a safety tolerance assessment on day 17 and returned to the clinical research center for urea breath test (UBT) follow-up examination between days 44 and 50 to evaluate the effect of Helicobacter pylori eradication.
The initial analysis of eradication effect was based on the full data set, which is defined as all patients who were randomly selected and received at least one dose of the trial combination therapy.
The eradication effects in each trial group were evaluated by UBT tests (negative or positive) conducted at the baseline time point, on day 8 after drug administration, day 16 after drug administration and day 44-50 of follow-up visit. Descriptive analysis was done using frequency (percentage), and comparison between groups was made. Fisher precision test was used to conduct between-group comparison analysis. As an aid to the analysis, the UBT values were listed as mean, standard deviation, median, minimum, maximum, and deviation from the baseline.

[1] = Safety tolerance assessment, adverse events (Example 1); assay type: in vivo, human
Method: as §1, §2, §3
The safety tolerance assessment incudes assessment of adverse events (AE), serious adverse events (SAE), drug-related AEs, and AEs leading to withdrawal.
The number and incidence of all adverse events were summarized according to the respective trial group, systemic organ classification and preferred terminology.
By trial group, according to the CTCA 5.0 rating, the list describes the incidence of adverse events in each trial group (occurred in each trial group alone, in 2 groups or 3 groups).
By trial group, the mean, standard deviation, median, minimum and maximum values of vital signs (blood pressure, breathing, pulse and body temperature) and laboratory indicators before and after drug administration were calculated, and when necessary, paired t-test or non-parametric test were used for before-and-after comparison.
SAE and Suspected Unintended Serious Adverse Reactions (SUSAR) were listed separately.

[2] = Solubility of drug substance; assay type: physicochemical
[3] = Group A: Compound I 200 mg BID + rabeprazole sodium 20 mg BID
[4] = Group A: Compound I 200 mg BID + rabeprazole sodium 20 mg BID, N = 10
[5] = Group B: Compound I 400 mg BID + rabeprazole sodium 20 mg BID
[6] = Group B: Compound I 400 mg BID + rabeprazole sodium 20 mg BID, N = 10
[7] = Group C: Compound I 600 mg BID + rabeprazole sodium 20 mg BID
[8] = Group C: Compound I 600 mg BID + rabeprazole sodium 20 mg BID, N = 10
[9] = Group D: Compound I 400 mg BID + rabeprazole sodium 20 mg BID + amoxicillin 1 g BID
[10] = Group D: Compound I 400 mg BID + rabeprazole sodium 20 mg BID + amoxicillin 1 g BID, N = 10

Solubility of drug substance [2]: low solubility
Compound: CO[C@H]1/C=C/O[C@@]2(C)Oc3c(C)c(O)c4c(c3C2=O)C2=NC3(CCN(CCn5c([N+](=O)[O-])cnc5C)CC3)NC2=C(NC(=O)/C(C)=C\C=C\[C@H](C)[C@H](O)[C@@H](C)[C@@H](O)[C@@H](C)[C@H](OC(C)=O)[C@@H]1C)C4=O [Compound I, 4-Deoxy-3,4-[2-spiro-[1-[2-(2-methyl-5-nitro-imidazol-1-yl)ethyl]-piperidin-4-yl]]-(1H)-imidazo-(2,5-dihydro)rifamycin]
Patients with UBT negative results (Helicobacter pylori; Day 8, Group A: Compound I 200 mg BID + rabeprazole sodium 20 mg BID): 7 (70.0) n(%) | Patients with UBT negative results (Helicobacter pylori; Day 8, Group B: Compound I 400 mg BID + rabeprazole sodium 20 mg BID): 10 (100.0) n(%) | Patients with UBT negative results (Helicobacter pylori; Day 8, Group C: Compound I 600 mg BID + rabeprazole sodium 20 mg BID): 8 (80.0) n(%) | Patients with UBT negative results (Helicobacter pylori; Day 8, Group D: Compound I 400 mg BID + rabeprazole sodium 20 mg BID + amoxicillin 1 g BID): 7 (70.0) n(%) | Patients with UBT negative results (Helicobacter pylori; Day 16, Group A: Compound I 200 mg BID + rabeprazole sodium 20 mg BID): 3 (30.0) n(%) | Patients with UBT negative results (Helicobacter pylori; Day 16, Group B: Compound I 400 mg BID + rabeprazole sodium 20 mg BID): 5 (50.0) n(%) | Patients with UBT negative results (Helicobacter pylori; Day 16, Group C: Compound I 600 mg BID + rabeprazole sodium 20 mg BID): 6 (60.0) n(%) | Patients with UBT negative results (Helicobacter pylori; Day 16, Group D: Compound I 400 mg BID + rabeprazole sodium 20 mg BID + amoxicillin 1 g BID): 10 (100.0) n(%) | Patients with UBT negative results (Helicobacter pylori; Follow up period (Day 44~50), Group A: Compound I 200 mg BID + rabeprazole sodium 20 mg BID): 0 (0.0) n(%) | Patients with UBT negative results (Helicobacter pylori; Follow up period (Day 44~50), Group B: Compound I 400 mg BID + rabeprazole sodium 20 mg BID): 3 (30.0) n(%) | Patients with UBT negative results (Helicobacter pylori; Follow up period (Day 44~50), Group C: Compound I 600 mg BID + rabeprazole sodium 20 mg BID): 4 (40.0) n(%) | Patients with UBT negative results (Helicobacter pylori; Follow up period (Day 44~50), Group D: Compound I 400 mg BID + rabeprazole sodium 20 mg BID + amoxicillin 1 g BID): 8 (80.0) n(%) | Eradication rate of H. pylori (Helicobacter pylori; Follow-up period (day 44 to day 50), Group D: Compound I 400 mg BID + rabeprazole sodium 20 mg BID + amoxicillin 1 g BID): 80% | Elevated serum creatinine, number of cases [1, 3]: 4 cases | Incidence of elevated serum creatinine (common AE associated with the combination therapy) [1, 3]: 30% | Incidence of hyperglycemia (common AE associated with the combination therapy) [1, 3]: 20% | Drug related TEAE (patients/episodes) [1, 4]: (6/18) | Incidence of AEs: Drug related TEAE [1, 4]: 60% | Incidence of AEs: TEAE [1, 4]: 60% | TEAE (patients/episodes) [1, 4]: (6/18) | Elevated serum creatinine, number of cases [1, 5]: 1 case | Grade 3 AEs [1, 5]: 3 | Incidence of elevated hemobilirubin (common AE associated with the combination therapy) [1, 5]: Group B: elevated hemobilirubin (20%), hyperglycemia (20%); | Incidence of hyperglycemia (common AE associated with the combination therapy) [1, 5]: Group B: elevated hemobilirubin (20%), hyperglycemia (20%); | Drug related TEAE (patients/episodes) [1, 6]: (7/9) | Incidence of AEs: Drug related TEAE [1, 6]: 70% | Incidence of AEs: TEAE [1, 6]: 80% | TEAE (patients/episodes) [1, 6]: (8/12) | Common adverse events with incidence of ≥15% associated with the combination therapy [1, 7]: Group C: absent; | Elevated serum creatinine, number of cases [1, 7]: 2 cases | Drug related TEAE (patients/episodes) [1, 8]: (5/8) | Incidence of AEs: Drug related TEAE [1, 8]: 50% | Incidence of AEs: TEAE [1, 8]: 50% | TEAE (patients/episodes) [1, 8]: (5/8) | Elevated serum creatinine, number of cases [1, 9]: 2 cases | Incidence of elevated alanine aminotransferase (common AE associated with the combination therapy) [1, 9]: Group D: elevated alanine aminotransferase (20%), elevated aspartic acid aminotransferase (20%), hypertriglyceridemia (20%), hyperuricemia (20%), rash (20%), papules (20%). | Incidence of elevated aspartic acid aminotransferase (common AE associated with the combination therapy) [1, 9]: Group D: elevated alanine aminotransferase (20%), elevated aspartic acid aminotransferase (20%), hypertriglyceridemia (20%), hyperuricemia (20%), rash (20%), papules (20%). | Incidence of hypertriglyceridemia (common AE associated with the combination therapy) [1, 9]: Group D: elevated alanine aminotransferase (20%), elevated aspartic acid aminotransferase (20%), hypertriglyceridemia (20%), hyperuricemia (20%), rash (20%), papules (20%). | Incidence of hyperuricemia (common AE associated with the combination therapy) [1, 9]: Group D: elevated alanine aminotransferase (20%), elevated aspartic acid aminotransferase (20%), hypertriglyceridemia (20%), hyperuricemia (20%), rash (20%), papules (20%). | Incidence of papules (common AE associated with the combination therapy) [1, 9]: Group D: elevated alanine aminotransferase (20%), elevated aspartic acid aminotransferase (20%), hypertriglyceridemia (20%), hyperuricemia (20%), rash (20%), papules (20%). | Incidence of rash (common AE associated with the combination therapy) [1, 9]: Group D: elevated alanine aminotransferase (20%), elevated aspartic acid aminotransferase (20%), hypertriglyceridemia (20%), hyperuricemia (20%), rash (20%), papules (20%). | Drug related TEAE (patients/episodes) [1, 10]: (7/17) | Incidence of AEs: Drug related TEAE [1, 10]: 70% | Incidence of AEs: TEAE [1, 10]: 80% | TEAE (patients/episodes) [1, 10]: (8/19) | Decrease in renal creatinine clearance, incidence rate ([1]; Total, Groups A-D): 7.5% | Drug-related AEs of grade 1 ([1]; Total, Groups A-D): 45 | Drug-related AEs of grade 2 ([1]; Total, Groups A-D): 6 cases | Drug-related skin abnormalities (rash, papules, itching), number of cases ([1]; Total, Groups A-D): 8 cases | Elevated serum creatinine, incidence rate ([1]; Total, Groups A-D): 15% | Elevated serum creatinine, number of cases ([1]; Total, Groups A-D): 9 cases | Grade 1 adverse events (CTC AE 5.0), number of cases ([1]; Total, Groups A-D): 46 cases | Grade 2 adverse events (CTC AE 5.0), number of cases ([1]; Total, Groups A-D): 10 cases | Hyperglycemia (unexpected adverse reaction), incidence ([1]; Total, Groups A-D): 12.5% | Skin abnormalities, number of cases ([1]; Total, Groups A-D): 10 cases | Unexpected adverse reactions, incidence ([1]; Total, Groups A-D): 15.0% | Drug related TEAE (patients/episodes) ([1]; Total, Groups A-D, N = 40): (25/52) | Incidence of AEs: Drug related TEAE ([1]; Total, Groups A-D, N = 40): 62.5% | Incidence of AEs: TEAE ([1]; Total, Groups A-D, N = 40): 67.5% | TEAE (patients/episodes) ([1]; Total, Groups A-D, N = 40): (27/57) | Hyperglycemia (unexpected adverse reaction), number of cases ([1]; Total, Groups A-D, grade 1): 6 cases | Unexpected adverse reactions, number of cases ([1]; Total, Groups A-D, grade 1): 7 cases | Elevated transaminases, number of cases ([1]; Total, Groups A-D, severity all grade 1): 7 cases | Safety and tolerability of the combination therapy ([1]; administered continuously for 14 days in asymptomatic healthy people with positive Helicobacter pylori infection): good safety and tolerability characteristics | Serious adverse events (SAE) ([1]; entire trial, Groups A-D): no SAE

Reference: patent US12005050B2, “Methods for preventing or treating H. pylori infection” (TENNOR THERAPEUTICS (SUZHOU) LIMITED, priority 2022, dated 2024)
